Results taken from the Deep4Chem optical property database.
“And” between values parts separate entries of the source, which are not always exact repeats. Identical values can stand only once.

Assay: solvent given as SMILES

Work on `C(#Cc1c2ccccc2c(-c2ccccc2)c2cc3ccccc3cc12)c1ccccc1` yielded an absorption maximum (in ClCCl) of 522 nm.

`c1ccc(-c2nc(-c3ccccc3)nc(-c3ccc(-n4c5ccccc5c5cc(-n6c7ccccc7c7ccccc76)ccc54)cc3)n2)cc1` showed an absorption maximum (in Cc1ccccc1) of 367 nm.

For `CCOC(=O)CSc1nc(C)c(CC)c(C#N)c1C#N`, the absorption maximum (in c1ccccc1) was 357 nm.

In the case of `c1ccc(-n2c3ccccc3c3cc(-c4cccc(-n5c6cccnc6c6c7sc8ccccc8c7ccc65)c4)ccc32)cc1`, the absorption maximum (in ClCCl) is reported as 365 nm.

For `CC1=CC(C)=[N+]2C1=C(c1ccc(N3CCCCC3)cc1)c1c(C)cc(C)n1[B-]2(F)F`, the absorption maximum (in C1CCOC1) was 499 nm, the absorption maximum (in CC#N) was 496 nm and the absorption maximum (in CC(=O)C(C)(C)C) was 496 nm. For the same molecule, the absorption maximum (in CC(C)=O) was 495 nm, the absorption maximum (in CCCCCC) was 500 nm and the absorption maximum (in CCOC(C)=O) was 498 nm. For the same molecule, the absorption maximum (in CO) was 500 nm and 497 nm.

With `Cn1c2ccccc2c(=O)c2ccccc21` the absorption maximum (in CS(C)=O) was 403 nm and the absorption maximum (in O) was 394 nm.

Work on `CN(C)c1ccc(/C=C/c2ncccn2)cc1` yielded an absorption maximum (in ClCCl) of 379 nm.

`CN(C)c1[se]c(-c2ccc(Cl)cc2)nc1-c1ccccc1` showed an absorption maximum (in ClC(Cl)Cl) of 360 nm.

`c1ccc(-c2nc(-c3ccccc3)nc(-c3ccc(-n4c5ccc(-n6c7ccccc7c7ccccc76)cc5c5cc(-n6c7ccccc7c7ccccc76)ccc54)cc3)n2)cc1` showed an absorption maximum (in Cc1ccccc1) of 368 nm.

Molecule `N#Cc1cc(-n2c3ccccc3c3cc(Br)ccc32)c(-n2c3ccccc3c3cc(Br)ccc32)cc1C#N` has an absorption maximum (in C1CCOC1) of 366 nm.

`CC1=NN(c2ccccc2)C(=O)/C1=C\c1cn(-c2ccccc2)nc1-c1ccc([N+](=O)[O-])cc1` showed an absorption maximum (in C1CCOC1) of 343 nm, an absorption maximum (in C1COCCO1) of 361 nm and an absorption maximum (in CCO) of 362 nm. The absorption maximum (in CCOC(C)=O) was 359 nm, the absorption maximum (in CN(C)C=O) was 361 nm and the absorption maximum (in CO) was 360 nm. For the same molecule, the absorption maximum (in CS(C)=O) was 364 nm, the absorption maximum (in Cc1ccccc1) was 364 nm and the absorption maximum (in ClC(Cl)Cl) was 363 nm.

`CCCCCCC1(CCCCCC)c2cc(-c3nc(-c4ccc5c(c4)C(CCCCCC)(CCCCCC)c4cc(N6c7ccccc7Sc7ccccc76)ccc4-5)nc(-c4ccc5c(c4)C(CCCCCC)(CCCCCC)c4cc(N6c7ccccc7Sc7ccccc76)ccc4-5)n3)ccc2-c2ccc(N3c4ccccc4Sc4ccccc43)cc21` showed an absorption maximum (in C1CCOC1) of 400 nm.

With `COc1ccc(-n2nc(C#N)c(NC3CCCCC3)n2)cc1` the absorption maximum (in CC#N) was 330 nm, the absorption maximum (in CCCCCC) was 325 nm and the absorption maximum (in CCO) was 333 nm. It also gave an absorption maximum (in CN(C)C=O) of 336 nm and an absorption maximum (in ClC(Cl)Cl) of 330 nm.

Molecule `Cc1cc(C)c(B(c2ccccc2N2c3ccccc3Oc3ccccc32)c2c(C)cc(C)cc2C)c(C)c1` has an absorption maximum (in Cc1ccccc1) of 445 nm.

Molecule `CN(C)c1ccc(C#Cc2ccc3ccc4ccc(C#Cc5ccc(N(C)C)cc5)c5ccc2c3c45)cc1` has an absorption maximum (in C1COCCO1) of 429 nm, an absorption maximum (in CC(C)=O) of 431 nm and an absorption maximum (in CCCCCC) of 421 nm. The absorption maximum (in CCCCCCO) was 429 nm, the absorption maximum (in CCO) was 426 nm and the absorption maximum (in CCOC(C)=O) was 428 nm. The absorption maximum (in CO) was 427 nm, the absorption maximum (in Cc1ccccc1) was 429 nm and the absorption maximum (in ClCCl) was 429 nm.

Work on `COc1ccc2ccc3oc(=O)c(-c4ccccc4)nc3c2c1` yielded an absorption maximum (in c1ccccc1) of 404 nm.

Molecule `c1ccc(N(c2ccccc2)c2ccc(-c3cnc(-c4ccc(N(c5ccccc5)c5ccccc5)cc4)s3)cc2)cc1` has an absorption maximum (in CO) of 398 nm.

For `CC(C)Nc1cc2sc3cc(NC(C)C)c(F)cc3c(=O)c2cc1F`, the absorption maximum (in CCO) was 377 nm.

`CCCCn1c2ccc(-c3cccs3)cc2c2c1c1c3ccc(-c4cccs4)cc3n(CCCC)c1c1c3ccc(-c4cccs4)cc3n(CCCC)c21` showed an absorption maximum (in C1CCOC1) of 337 nm.

In the case of `CCCCCc1ccc(C#Cc2cc(C#Cc3ccc(CCCCC)cc3)c3ccc4c(C(=O)c5ccccc5)cc(C#Cc5ccc(CCCCC)cc5)c5ccc2c3c54)cc1`, the absorption maximum (in ClCCl) is reported as 457 nm.

`CCn1c2ccccc2oc2c(C#N)c3oc4ccccc4oc3c(C#N)c21` showed an absorption maximum (in ClC(Cl)Cl) of 470 nm.

Molecule `CCCCCCCCCCCCCCCCCCN1C(=O)c2ccc3c4ccc5c6c(ccc(c7ccc(c2c37)C1=O)c64)C(=O)NC5=O` has an absorption maximum (in CN(C)C=O) of 523 nm.

`CCn1c2ccc(-c3ccc(-c4cccs4)s3)cc2c2cc(-c3ccc(-c4cccs4)s3)ccc21` showed an absorption maximum (in ClCCl) of 380 nm.

In the case of `Cc1ccccc1-c1c2ccc(=[N+]3CCOCC3)cc-2oc2cc(N3CCCCC3)ccc12`, the absorption maximum (in CCO) is reported as 560 nm and the absorption maximum (in ClCCl) is reported as 559 nm.

`Cc1ccc2nc3[nH]c(=O)[nH]c(=O)c3nc2c1` gave an absorption maximum (in CC#N) of 382 nm and an absorption maximum (in ClCCCl) of 384 nm.

Work on `CN(C)c1ccc2nc(-c3ccc(C(=O)O)cc3)sc2c1` yielded an absorption maximum (in C1CCCCC1) of 387 nm, an absorption maximum (in CC#N) of 390 nm and an absorption maximum (in CC(C)O) of 374 nm. It also gave an absorption maximum (in CO) of 377 nm, an absorption maximum (in CS(C)=O) of 400 nm and an absorption maximum (in ClC(Cl)Cl) of 400 nm. It also gave an absorption maximum (in c1ccccc1) of 394 nm.

`Fc1cc(F)c2cc3cccc[n+]3cc2c1` gave an absorption maximum (in O) of 407 nm.

`FC(F)(F)C(F)(F)C(F)(F)c1nc2c(-c3ccsc3)cc3c4cc(-c5ccsc5)c5nc(C(F)(F)C(F)(F)C(F)(F)F)nc6c(-c7ccsc7)cc(c7cc(-c8ccsc8)c(n1)c2c37)c4c56` showed an absorption maximum (in C1CCOC1) of 538 nm.

In the case of `CC1(C)c2ccccc2N(c2ccccc2)c2ccc(-c3ccc(S(=O)(=O)c4ccc(-c5ccc6c(c5)C(C)(C)c5ccccc5N6c5ccccc5)cc4)cc3)cc21`, the absorption maximum (in Cc1ccccc1) is reported as 363.38 nm.

For `c1ccc2cc(-n3c4ccccc4c4ccccc43)ccc2c1`, the absorption maximum (in C1CCCCC1) was 318 nm, the absorption maximum (in C1CCOC1) was 320 nm and the absorption maximum (in CC#N) was 321 nm. It also gave an absorption maximum (in CCO) of 320 nm, an absorption maximum (in CCOC(C)=O) of 318 nm and an absorption maximum (in CCOCC) of 319 nm. The absorption maximum (in CO) was 319 nm, the absorption maximum (in Cc1ccccc1) was 319 nm and the absorption maximum (in ClC(Cl)Cl) was 321 nm.

Molecule `CNc1cc2nc3cc(Br)c(Br)cc3nc2cc1NC` has an absorption maximum (in CCO) of 443 nm.

`O=C1C=C(Nc2ccc([N+](=O)[O-])cc2[N+](=O)[O-])C(=O)c2ccccc21` showed an absorption maximum (in CO) of 437 nm.

In the case of `COc1ccc(C2=C3C(/C=C/c4cc(OC)c(OC)c(OC)c4)=C(C=O)C(/C=C/c4cc(OC)c(OC)c(OC)c4)=[N+]3[B-](F)(F)n3c(/C=C/c4cc(OC)c(OC)c(OC)c4)c(C=O)c(C=Cc4cc(OC)c(OC)c(OC)c4)c32)cc1`, the absorption maximum (in ClCCl) is reported as 688 nm.

In the case of `F[B-]1(F)OC(c2ccc(Br)cc2)=Cc2c3ccccc3c3ccccc3[n+]21`, the absorption maximum (in ClC(Cl)Cl) is reported as 435 nm.

In the case of `CC(C)(C)OC(=O)/C=C/C1=CC2=C(c3ccccc3)c3cccn3[B-](F)(F)[N+]2=C1`, the absorption maximum (in ClCCl) is reported as 538 nm.

`CCCCC(CC)CN1C(=O)c2cccc3c(C#Cc4ccc(N(c5ccccc5)c5ccccc5)cc4)ccc(c23)C1=O` (stereo not given) showed an absorption maximum (in C1CCCCC1) of 422 nm, an absorption maximum (in C1CCOC1) of 434 nm and an absorption maximum (in CC#N) of 433 nm. It also gave an absorption maximum (in Cc1ccccc1) of 438 nm and an absorption maximum (in ClC(Cl)Cl) of 450 nm.

In the case of `CC1=[N+]2C(=C(c3cccs3)c3ccc(C)n3[B-]2(F)F)C=C1c1cc2n(c1)[B-](F)(F)[N+]1=CC=CC1=C2c1c(C)cc(C)cc1C`, the absorption maximum (in C1CCCCC1) is reported as 608.5 nm and the absorption maximum (in CCOC(C)=O) is reported as 605 nm.

Work on `CCCc1ccc2c(c1)cc1n2B2c3c4c-1cccc4cc1cccc(c31)-c1cc3cc(CCC)ccc3n12` yielded an absorption maximum (in C1CCOC1) of 537 nm.

`COc1ccc(-n2c(-c3ccc(-c4cncc5ccccc45)cc3)nc(-c3ccccc3)c2-c2ccccc2)cc1` showed an absorption maximum (in C1CCOC1) of 328 nm.

`CCCCCCC(CCCCCC)n1c(=O)c2c3ccc4cccc5c6cccc7ccc(c2c1=O)c(c76)c3c45` showed an absorption maximum (in C1CCCCC1) of 335 nm, an absorption maximum (in CC#N) of 336 nm and an absorption maximum (in CC(C)=O) of 336 nm. It also gave an absorption maximum (in CCCCCC) of 334 nm, an absorption maximum (in CCO) of 336 nm and an absorption maximum (in CCOCC) of 335 nm. For the same molecule, the absorption maximum (in CS(C)=O) was 339 nm, the absorption maximum (in Cc1ccccc1) was 339 nm and the absorption maximum (in ClC(Cl)(Cl)Cl) was 338 nm. It also gave an absorption maximum (in ClC(Cl)Cl) of 339 nm.

`CC(C)(C)OC(=O)CN1CCN(c2ccc3c(-c4ccc(I)cc4)c4ccc(=[N+]5CCN(CC(=O)OC(C)(C)C)CC5)cc-4oc3c2)CC1` showed an absorption maximum (in ClCCl) of 564 nm.

Work on `CCCCc1ccc(-n2c3c4ccc(C(F)(F)F)cc4nnc3c3c2c2nnc4cc(C(F)(F)F)ccc4c2n3-c2ccc(CCCC)cc2)cc1` yielded an absorption maximum (in Cc1ccccc1) of 322 nm.

With `C#CCOc1ccc(C2=[N+]3C(=Nc4c(-c5ccccc5)cc(-c5ccc(O)cc5)n4[B-]3(F)F)C(c3ccccc3)=C2)cc1` the absorption maximum (in CO) was 688 nm, the absorption maximum (in Cc1ccccc1) was 685 nm and the absorption maximum (in ClC(Cl)Cl) was 680 nm.

`CCCCC(CC)CO[N+](=O)[O-]` (stereo not given) showed an absorption maximum (in CO) of 218 nm and an absorption maximum (in O) of 198 nm.

Work on `O=c1oc2ccc(Cl)cc2cc1-c1cc2cc(Cl)ccc2o1` yielded an absorption maximum (in CC#N) of 369 nm, an absorption maximum (in CCOC(C)=O) of 370 nm and an absorption maximum (in CS(C)=O) of 373 nm. For the same molecule, the absorption maximum (in Cc1ccccc1) was 375 nm and the absorption maximum (in O) was 327 nm.

Work on `COC(=O)/C(C#N)=c1\s/c(=c2/s/c(=C(/C#N)C(=O)OC)c3cc(-c4ccccc4)sc23)c2sc(-c3ccccc3)cc12` yielded an absorption maximum (in Cc1ccccc1) of 605 nm.

In the case of `CCCCCCn1c2cc(/C=C(\C#N)c3cccs3)ccc2c2ccc(/C=C(\C#N)c3cccs3)cc21`, the absorption maximum (in ClC(Cl)Cl) is reported as 436.68 nm.

`C1=C(c2ccccc2)C(c2ccccc2)C(c2ccccc2)=C1` showed an absorption maximum (in C1CCOC1) of 304 nm.

`COc1ccc2c(-c3nc(-c4ccccc4F)no3)cc(=O)oc2c1` gave an absorption maximum (in CCO) of 333 nm and an absorption maximum (in ClC(Cl)Cl) of 339 nm.

For `N#CC(C#N)=Cc1ccc(-c2ccc(N(c3ccccc3)c3ccccc3)cc2)s1`, the absorption maximum (in ClC(Cl)Cl) was 506 nm.

Molecule `CCCCc1ccc(-n2c3c4cc(F)ccc4nnc3c3c2c2nnc4ccc(F)cc4c2n3-c2ccc(CCCC)cc2)cc1` has an absorption maximum (in Cc1ccccc1) of 315 nm.

`CN(C)c1ccc2nc(-c3ccc(C(=O)OC(C)(C)C)cc3)sc2c1` gave an absorption maximum (in C1CCCCC1) of 384 nm, an absorption maximum (in CC#N) of 390 nm and an absorption maximum (in CC(C)O) of 392 nm. The absorption maximum (in CO) was 393 nm, the absorption maximum (in CS(C)=O) was 403 nm and the absorption maximum (in ClC(Cl)Cl) was 392 nm. It also gave an absorption maximum (in c1ccccc1) of 392 nm.

Work on `CCn1c2ccccc2c2cc3c(cc21)c1ccccc1n3CC` yielded an absorption maximum (in ClC(Cl)Cl) of 419 nm.

`COc1ccc2cc(C#N)c(=N)oc2c1` gave an absorption maximum (in ClCCl) of 358 nm.
